Experimental data reported in the NIST ThermoML archive (doi:10.1016/j.jct.2008.12.002).
± gives the expanded uncertainty stated by the source.

Assay: xn = mol fraction of the nth substance listed
Details: 101 kPa, Liquid, Vibrating tube method

CCCCCCCCOS(=O)(=O)[O-].CCCCn1cc[n+](C)c1 [1-butyl-3-methylimidazolium octyl sulfate] + OCCO
mass density [kg/m3]
Details | 298.15 K | 308.15 K | 318.15 K
x1 = 0.0003 | 1109.9 ± 0.4 | 1102.8 ± 0.4 | 1095.5 ± 0.4
x1 = 0.0008 | 1109.8 ± 0.4 | 1102.6 ± 0.4 | 1095.3 ± 0.4
x1 = 0.0012 | 1109.6 ± 0.4 | 1102.5 ± 0.4 | 1095.2 ± 0.4
x1 = 0.0017 | 1109.5 ± 0.4 | 1102.4 ± 0.4 | 1095.1 ± 0.4
x1 = 0.002 | 1109.4 ± 0.4 | 1102.3 ± 0.4 | 1095 ± 0.4
x1 = 0.0038 | 1108.8 ± 0.4 | 1101.7 ± 0.4 | 1094.4 ± 0.4
x1 = 0.007 | 1107.8 ± 0.4 | 1100.7 ± 0.4 | 1093.4 ± 0.4
x1 = 0.0119 | 1106.3 ± 0.4 | 1099.2 ± 0.4 | 1092 ± 0.4
x1 = 0.0174 | 1104.7 ± 0.4 | 1097.7 ± 0.4 | 1090.5 ± 0.4
x1 = 0.0258 | 1102.5 ± 0.4 | 1095.5 ± 0.4 | 1088.2 ± 0.4
x1 = 0.0508 | 1096.8 ± 0.4 | 1089.8 ± 0.4 | 1082.6 ± 0.4
x1 = 0.19 | 1079.9 ± 0.4 | 1072.9 ± 0.4 | 1065.9 ± 0.4
x1 = 0.301 | 1074.2 ± 0.5 | 1067.3 ± 0.5 | 1060.4 ± 0.4
x1 = 0.3712 | 1072.2 ± 0.5 | 1065.3 ± 0.5 | 1058.4 ± 0.5
x1 = 0.4591 | 1070.5 ± 0.5 | 1063.6 ± 0.5 | 1056.8 ± 0.5
x1 = 0.5435 | 1069.4 ± 0.6 | 1062.7 ± 0.6 | 1055.9 ± 0.6
x1 = 0.6225 | 1068.7 ± 0.7 | 1062.1 ± 0.7 | 1055.4 ± 0.6
x1 = 0.7366 | 1068.2 ± 0.7 | 1061.5 ± 0.7 | 1054.9 ± 0.7
x1 = 0.8073 | 1067.9 ± 0.8 | 1061.3 ± 0.8 | 1054.8 ± 0.8
x1 = 0.9007 | 1067.7 ± 0.9 | 1061.2 ± 0.9 | 1054.6 ± 0.9
x1 = 1 | 1067.6 ± 1 | 1061 ± 1 | 1054.5 ± 1
